In publication PMC9719519, “Non-classical ferroptosis inhibition by a small molecule targeting PHB2” (Nature Communications, 2022):

Assays:
Assay in all cases: biochemical
Parameters in all cases: Eurofins recombinant human kinase profiling, remaining kinase activity as % of control, 10 uM ATP
Settings in all cases: ATP 10 uM; read-out: %Ctrl@10 μM
Abl (Q252H) (h) = target: T1, Abl (Q252H) (h) (Homo sapiens, UniProt P00519, Q252H)
T1 construct: gene ABL1
How it was run: (§1)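 Activity measured in a commercial panel of 401 recombinant human protein kinases run as a kinase profiling service.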

MST4(h) = target: T2, MST4(h) (Homo sapiens, UniProt Q9P289)
T2 construct: gene STK26
How it was run: as §1

Aurora-C(h) = target: T3, Aurora-C(h) (Homo sapiens, UniProt Q9UQB9)
T3 construct: gene AURKC
T3 sequence (Q9UQB9 whole entry): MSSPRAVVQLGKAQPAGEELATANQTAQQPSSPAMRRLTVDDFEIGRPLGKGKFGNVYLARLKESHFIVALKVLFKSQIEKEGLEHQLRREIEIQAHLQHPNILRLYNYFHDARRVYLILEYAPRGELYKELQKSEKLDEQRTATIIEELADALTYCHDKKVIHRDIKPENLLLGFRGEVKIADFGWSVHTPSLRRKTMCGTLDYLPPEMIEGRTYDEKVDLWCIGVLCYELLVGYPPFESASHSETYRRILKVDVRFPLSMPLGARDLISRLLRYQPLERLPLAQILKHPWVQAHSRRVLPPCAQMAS
How it was run: as §1

DNA-PK(h) = target: T4, DNA-PK(h) (Homo sapiens, UniProt P78527)
T4 construct: gene PRKDC
How it was run: as §1

JAK2(h) = JAK2(h) (Homo sapiens, UniProt O60674)
How it was run: as §1

Pim-2(h) = target: T5, Pim-2(h) (Homo sapiens, UniProt Q9P1W9)
T5 construct: gene PIM2
T5 sequence (Q9P1W9 whole entry): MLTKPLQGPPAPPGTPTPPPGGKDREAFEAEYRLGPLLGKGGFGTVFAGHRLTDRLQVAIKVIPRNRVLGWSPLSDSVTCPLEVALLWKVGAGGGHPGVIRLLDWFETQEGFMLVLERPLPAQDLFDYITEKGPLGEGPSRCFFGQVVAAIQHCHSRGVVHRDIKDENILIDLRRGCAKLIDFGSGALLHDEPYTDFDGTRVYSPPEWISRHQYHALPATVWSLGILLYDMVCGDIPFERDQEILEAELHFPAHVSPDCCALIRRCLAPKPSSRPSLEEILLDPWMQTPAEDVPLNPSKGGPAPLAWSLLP
How it was run: as §1

EphB3(h) = EphB3(h) (Homo sapiens, UniProt P54753)
EphB3(h), sequence (P54753 whole entry): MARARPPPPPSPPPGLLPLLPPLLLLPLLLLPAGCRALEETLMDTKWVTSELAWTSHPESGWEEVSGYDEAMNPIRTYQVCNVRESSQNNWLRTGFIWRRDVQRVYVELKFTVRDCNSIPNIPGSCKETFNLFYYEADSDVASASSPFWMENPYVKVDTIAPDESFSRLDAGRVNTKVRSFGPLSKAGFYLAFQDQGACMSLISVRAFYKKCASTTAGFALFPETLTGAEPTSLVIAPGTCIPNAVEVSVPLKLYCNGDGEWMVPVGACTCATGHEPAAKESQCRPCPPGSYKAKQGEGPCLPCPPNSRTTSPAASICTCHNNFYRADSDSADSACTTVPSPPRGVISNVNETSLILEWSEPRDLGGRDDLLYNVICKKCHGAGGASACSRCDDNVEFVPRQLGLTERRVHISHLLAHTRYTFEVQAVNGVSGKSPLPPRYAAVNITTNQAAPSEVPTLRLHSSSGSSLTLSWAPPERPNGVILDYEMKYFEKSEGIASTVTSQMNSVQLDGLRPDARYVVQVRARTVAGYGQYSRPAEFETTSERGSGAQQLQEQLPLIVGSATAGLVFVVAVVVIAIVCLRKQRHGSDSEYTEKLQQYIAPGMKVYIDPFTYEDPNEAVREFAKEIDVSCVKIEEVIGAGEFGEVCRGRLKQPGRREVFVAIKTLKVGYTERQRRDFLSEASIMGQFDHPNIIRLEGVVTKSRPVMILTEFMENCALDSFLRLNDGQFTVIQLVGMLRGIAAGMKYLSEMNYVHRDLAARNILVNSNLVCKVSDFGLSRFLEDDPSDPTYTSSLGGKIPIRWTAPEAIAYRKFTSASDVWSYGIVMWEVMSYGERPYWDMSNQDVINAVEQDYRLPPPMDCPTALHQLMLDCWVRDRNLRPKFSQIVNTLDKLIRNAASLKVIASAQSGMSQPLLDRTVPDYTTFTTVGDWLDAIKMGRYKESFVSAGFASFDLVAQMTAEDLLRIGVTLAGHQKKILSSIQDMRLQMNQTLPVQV
How it was run: as §1

MAP4K3(h) = MAP4K3(h) (Homo sapiens, UniProt Q8IVH8)
How it was run: as §1

PAK5(h) = PAK5(h) (Homo sapiens, UniProt Q9P286)
PAK5(h), sequence (Q9P286 whole entry): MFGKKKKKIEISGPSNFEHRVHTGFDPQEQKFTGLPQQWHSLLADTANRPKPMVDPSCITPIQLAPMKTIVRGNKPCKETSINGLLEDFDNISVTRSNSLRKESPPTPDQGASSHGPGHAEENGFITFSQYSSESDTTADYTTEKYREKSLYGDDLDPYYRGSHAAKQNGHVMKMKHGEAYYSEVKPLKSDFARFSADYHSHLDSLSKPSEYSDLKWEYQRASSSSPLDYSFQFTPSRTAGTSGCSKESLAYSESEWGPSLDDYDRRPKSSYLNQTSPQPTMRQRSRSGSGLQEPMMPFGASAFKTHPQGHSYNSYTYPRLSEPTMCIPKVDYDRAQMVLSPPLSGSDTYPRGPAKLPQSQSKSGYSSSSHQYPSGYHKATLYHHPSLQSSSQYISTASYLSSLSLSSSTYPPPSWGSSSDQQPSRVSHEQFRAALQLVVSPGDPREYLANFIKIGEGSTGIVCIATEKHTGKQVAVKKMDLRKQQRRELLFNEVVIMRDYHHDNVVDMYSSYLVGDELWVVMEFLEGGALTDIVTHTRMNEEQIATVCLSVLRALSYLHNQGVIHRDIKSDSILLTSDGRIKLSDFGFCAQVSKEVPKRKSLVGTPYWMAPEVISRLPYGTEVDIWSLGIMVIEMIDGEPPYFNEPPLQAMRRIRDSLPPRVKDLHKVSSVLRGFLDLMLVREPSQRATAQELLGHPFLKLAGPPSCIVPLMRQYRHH
How it was run: as §1

Flt1(h) = Flt1(h) (Homo sapiens, UniProt P17948)
Flt1(h), sequence (P17948 whole entry): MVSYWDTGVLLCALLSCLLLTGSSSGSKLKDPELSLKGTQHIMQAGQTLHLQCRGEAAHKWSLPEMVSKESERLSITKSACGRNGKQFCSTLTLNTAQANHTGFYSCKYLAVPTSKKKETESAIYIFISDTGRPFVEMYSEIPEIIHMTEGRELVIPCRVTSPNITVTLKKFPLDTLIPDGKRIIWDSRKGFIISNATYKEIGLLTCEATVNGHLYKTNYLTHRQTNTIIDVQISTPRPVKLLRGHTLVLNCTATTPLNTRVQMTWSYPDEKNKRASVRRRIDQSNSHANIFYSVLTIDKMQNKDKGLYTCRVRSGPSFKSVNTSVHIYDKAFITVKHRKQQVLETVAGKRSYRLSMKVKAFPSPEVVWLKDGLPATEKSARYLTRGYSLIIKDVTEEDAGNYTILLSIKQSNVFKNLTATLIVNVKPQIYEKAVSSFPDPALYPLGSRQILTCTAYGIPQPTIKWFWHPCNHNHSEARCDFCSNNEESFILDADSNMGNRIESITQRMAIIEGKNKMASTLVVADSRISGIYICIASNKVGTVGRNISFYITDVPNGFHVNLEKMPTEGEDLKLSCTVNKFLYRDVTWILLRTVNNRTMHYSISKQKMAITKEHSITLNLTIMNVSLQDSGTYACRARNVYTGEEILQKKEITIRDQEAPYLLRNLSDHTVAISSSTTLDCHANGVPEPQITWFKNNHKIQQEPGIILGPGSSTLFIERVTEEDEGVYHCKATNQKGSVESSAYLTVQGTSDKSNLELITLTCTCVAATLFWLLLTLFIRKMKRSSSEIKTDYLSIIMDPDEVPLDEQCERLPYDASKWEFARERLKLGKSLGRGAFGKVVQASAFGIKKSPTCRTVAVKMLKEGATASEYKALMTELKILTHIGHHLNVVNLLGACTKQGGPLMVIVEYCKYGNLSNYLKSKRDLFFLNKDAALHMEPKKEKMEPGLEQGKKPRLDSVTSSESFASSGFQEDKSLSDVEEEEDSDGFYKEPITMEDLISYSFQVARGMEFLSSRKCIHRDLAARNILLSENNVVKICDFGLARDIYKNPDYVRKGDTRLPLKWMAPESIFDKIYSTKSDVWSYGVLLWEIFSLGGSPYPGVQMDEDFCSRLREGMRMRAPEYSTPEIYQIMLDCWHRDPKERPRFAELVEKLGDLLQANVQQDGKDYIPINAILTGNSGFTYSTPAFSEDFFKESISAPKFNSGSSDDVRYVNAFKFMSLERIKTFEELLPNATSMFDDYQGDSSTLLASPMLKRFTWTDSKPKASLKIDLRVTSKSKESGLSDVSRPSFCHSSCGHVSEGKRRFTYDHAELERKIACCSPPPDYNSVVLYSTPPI
How it was run: as §1

DYRK3(h) = DYRK3(h) (Homo sapiens, UniProt O43781)
How it was run: as §1

TSSK3(h) = TSSK3(h) (Homo sapiens, UniProt Q96PN8)
TSSK3(h), sequence (Q96PN8 whole entry): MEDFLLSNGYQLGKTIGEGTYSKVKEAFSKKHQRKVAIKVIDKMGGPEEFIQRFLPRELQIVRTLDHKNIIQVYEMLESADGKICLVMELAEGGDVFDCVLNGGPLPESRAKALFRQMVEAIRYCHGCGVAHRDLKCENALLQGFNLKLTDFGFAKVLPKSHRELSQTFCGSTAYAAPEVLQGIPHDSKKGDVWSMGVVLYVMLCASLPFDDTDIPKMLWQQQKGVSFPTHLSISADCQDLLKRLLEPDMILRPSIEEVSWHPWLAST
How it was run: as §1

PKCα(h) = target: T6, PKCα(h) (Homo sapiens, UniProt P17252)
T6 construct: gene PRKCA
How it was run: as §1

MARK1(h) = MARK1(h) (Homo sapiens, UniProt Q9P0L2)
How it was run: as §1

MSSK1(h) = target: T7, MSSK1(h) (Homo sapiens, UniProt Q9UPE1)
T7 construct: gene SRPK3
T7 sequence (Q9UPE1 whole entry): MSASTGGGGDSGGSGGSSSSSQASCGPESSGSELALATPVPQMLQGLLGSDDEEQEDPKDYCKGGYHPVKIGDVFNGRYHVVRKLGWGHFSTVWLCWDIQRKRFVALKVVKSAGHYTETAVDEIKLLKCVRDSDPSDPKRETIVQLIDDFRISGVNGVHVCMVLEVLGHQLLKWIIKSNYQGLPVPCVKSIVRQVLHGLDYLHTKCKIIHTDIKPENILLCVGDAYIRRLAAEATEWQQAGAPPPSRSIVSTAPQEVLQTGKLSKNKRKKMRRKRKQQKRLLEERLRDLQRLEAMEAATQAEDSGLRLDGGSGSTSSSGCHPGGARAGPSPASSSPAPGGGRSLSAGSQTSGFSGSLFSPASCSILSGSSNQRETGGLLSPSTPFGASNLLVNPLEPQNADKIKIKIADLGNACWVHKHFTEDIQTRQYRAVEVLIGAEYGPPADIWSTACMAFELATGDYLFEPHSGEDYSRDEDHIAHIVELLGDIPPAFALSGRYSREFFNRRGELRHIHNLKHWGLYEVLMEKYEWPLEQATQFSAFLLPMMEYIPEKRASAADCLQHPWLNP
How it was run: as §1

cKit(D816V)(h) = target: T8, cKit(D816V)(h) (Homo sapiens, UniProt P10721, D816V)
T8 construct: gene KIT
How it was run: as §1

PKBα(h) = target: T9, PKBα(h) (Homo sapiens, UniProt P31749)
T9 construct: gene AKT1
How it was run: as §1

PRK2(h) = target: T10, PRK2(h) (Homo sapiens, UniProt Q16513)
T10 construct: gene PKN2
How it was run: as §1

ATM(h) = ATM(h) (Homo sapiens, UniProt Q13315)
How it was run: as §1

ZAK(h) = target: T11, ZAK(h) (Homo sapiens, UniProt Q9NYL2)
T11 construct: gene MAP3K20
How it was run: as §1

MARK4(h) = MARK4(h) (Homo sapiens, UniProt Q96L34)
How it was run: as §1

PKBγ(h) = target: T12, PKBγ(h) (Homo sapiens, UniProt Q9Y243)
T12 construct: gene AKT3
How it was run: as §1

PAK2(h) = PAK2(h) (Homo sapiens, UniProt Q13177)
PAK2(h), sequence (Q13177 whole entry): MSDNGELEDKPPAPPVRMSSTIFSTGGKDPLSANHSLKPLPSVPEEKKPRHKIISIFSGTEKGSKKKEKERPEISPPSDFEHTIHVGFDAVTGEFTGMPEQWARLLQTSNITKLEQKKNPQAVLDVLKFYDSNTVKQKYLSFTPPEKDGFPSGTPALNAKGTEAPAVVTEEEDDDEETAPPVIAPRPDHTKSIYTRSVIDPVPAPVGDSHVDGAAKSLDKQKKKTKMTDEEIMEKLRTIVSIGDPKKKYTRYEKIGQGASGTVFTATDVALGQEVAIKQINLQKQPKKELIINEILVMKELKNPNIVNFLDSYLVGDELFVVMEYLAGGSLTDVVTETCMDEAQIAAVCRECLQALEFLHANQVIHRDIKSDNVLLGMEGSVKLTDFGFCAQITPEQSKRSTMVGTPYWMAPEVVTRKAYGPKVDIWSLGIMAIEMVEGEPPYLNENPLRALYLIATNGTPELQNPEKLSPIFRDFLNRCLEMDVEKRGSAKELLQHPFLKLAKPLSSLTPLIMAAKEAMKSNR
How it was run: as §1

C1=C(c2nc(-c3cnn(C4CCNCC4)c3)cn3cc(-c4ccccc4)nc23)CCOC1 [YL-939]
remaining activity at 10 µM (Abl (Q252H) (h)): 122%
remaining activity at 10 µM (MST4(h)): 112%
remaining activity at 10 µM (Aurora-C(h)): 101%
remaining activity at 10 µM (DNA-PK(h)): 94%
remaining activity at 10 µM (JAK2(h)): 90%
remaining activity at 10 µM (Pim-2(h)): 84%
remaining activity at 10 µM (EphB3(h)): 93%
remaining activity at 10 µM (MAP4K3(h)): 79%
remaining activity at 10 µM (PAK5(h)): 95%
remaining activity at 10 µM (Flt1(h)): 65%
remaining activity at 10 µM (DYRK3(h)): 77%
remaining activity at 10 µM (TSSK3(h)): 87%
remaining activity at 10 µM (PKCα(h)): 104%
remaining activity at 10 µM (MARK1(h)): 95%
remaining activity at 10 µM (MSSK1(h)): 87%
remaining activity at 10 µM (cKit(D816V)(h)): 108%
remaining activity at 10 µM (PKBα(h)): 68%
remaining activity at 10 µM (PRK2(h)): 89%
remaining activity at 10 µM (ATM(h)): 86%
remaining activity at 10 µM (ZAK(h)): 85%
remaining activity at 10 µM (MARK4(h)): 111%
remaining activity at 10 µM (PKBγ(h)): 97%
remaining activity at 10 µM (PAK2(h)): 90%
